Experiment [1] concerns the target T1, Neuropeptide Y receptor type 5 (Homo sapiens, UniProt Q15761).
T1 sequence (Q15761 whole entry): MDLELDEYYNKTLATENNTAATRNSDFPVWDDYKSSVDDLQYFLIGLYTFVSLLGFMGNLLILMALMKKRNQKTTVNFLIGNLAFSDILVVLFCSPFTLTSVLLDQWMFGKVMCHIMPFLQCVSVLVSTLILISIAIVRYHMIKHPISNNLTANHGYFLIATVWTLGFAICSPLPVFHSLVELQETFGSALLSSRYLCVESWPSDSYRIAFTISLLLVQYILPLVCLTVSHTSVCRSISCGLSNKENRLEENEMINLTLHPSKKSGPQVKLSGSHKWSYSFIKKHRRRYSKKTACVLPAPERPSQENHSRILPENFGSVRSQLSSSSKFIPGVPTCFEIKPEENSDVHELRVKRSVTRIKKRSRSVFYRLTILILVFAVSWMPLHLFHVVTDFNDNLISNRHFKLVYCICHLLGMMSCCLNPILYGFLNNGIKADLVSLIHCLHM
The experiment can be described thus: Human Neuropeptide Y5 receptor binding affinity.

Experiment [2] has as its target T2, Neuropeptide Y receptor type 1 (Homo sapiens, UniProt P25929).
T2 sequence (P25929 whole entry): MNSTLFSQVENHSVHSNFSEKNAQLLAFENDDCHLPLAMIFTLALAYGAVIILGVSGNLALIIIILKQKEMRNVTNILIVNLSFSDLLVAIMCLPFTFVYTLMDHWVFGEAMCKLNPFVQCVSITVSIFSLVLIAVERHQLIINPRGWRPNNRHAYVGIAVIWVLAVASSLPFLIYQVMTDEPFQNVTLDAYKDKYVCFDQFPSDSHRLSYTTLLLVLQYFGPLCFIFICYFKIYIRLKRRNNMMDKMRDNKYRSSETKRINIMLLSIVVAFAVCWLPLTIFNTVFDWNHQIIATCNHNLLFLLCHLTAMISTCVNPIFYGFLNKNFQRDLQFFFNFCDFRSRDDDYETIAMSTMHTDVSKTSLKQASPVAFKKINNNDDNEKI
The experiment is described as follows: Human Neuropeptide Y1 receptor binding affinity.

With `CC(C)c1cc(C(C)C)c(S(=O)(=O)NC[C@H]2CC[C@H](C(=O)NNC(=O)c3cc4ccccc4s3)CC2)c(C(C)C)c1`, the figures for the IC50 in experiment [1] and in experiment [2] were 142 nM and greater than 10000 nM, respectively.

Regarding `O=C(NNC(=O)[C@H]1CC[C@H](CNS(=O)(=O)c2ccccc2)CC1)c1cccs1`, the IC50 is 32.2 nM in experiment [1] and greater than 10000 nM in experiment [2].

For the molecule `O=C(NNC(=O)[C@H]1CC[C@H](CNS(=O)(=O)c2ccc(Br)cc2)CC1)c1cccs1`, the IC50 is 7.7 nM in experiment [1] and greater than 10000 nM in experiment [2].

As for `O=C(NNC(=O)[C@H]1CC[C@H](CNS(=O)(=O)c2cccc3cccnc23)CC1)c1cc2ccccc2s1`, the IC50 in experiment [1] was 92.2 nM; in experiment [2] it was greater than 10000 nM.

Consider `O=C(NNC(=O)[C@H]1CC[C@H](CNS(=O)(=O)c2cccs2)CC1)c1cccs1`, for which the IC50 in experiment [1] is 12.5 nM; in experiment [2] it was greater than 10000 nM.

Consider `Cc1ccc(S(=O)(=O)NC[C@H]2CC[C@H](C(=O)NNC(=O)c3cccs3)CC2)cc1`, for which the IC50 is 20.4 nM in experiment [1] and greater than 10000 nM in experiment [2].

Regarding `O=C(NNC(=O)[C@H]1CC[C@H](CNS(=O)(=O)c2cccs2)CC1)c1cc2ccccc2s1`, the IC50 is 11.5 nM in experiment [1] and greater than 10000 nM in experiment [2].

For the molecule `O=C(NNC(=O)[C@H]1CC[C@H](CNS(=O)(=O)c2ccc(Cl)cc2)CC1)c1cccs1`, the IC50 in experiment [1] is 48.4 nM; in experiment [2], greater than 10000 nM.

In the case of `O=C(NNC(=O)[C@H]1CC[C@H](CNS(=O)(=O)c2ccc(Br)cc2)CC1)c1cc2ccccc2s1`, the IC50 was 28.4 nM in experiment [1] and greater than 10000 nM in experiment [2].

In the case of `O=C(NNC(=O)[C@H]1CC[C@H](CNS(=O)(=O)c2ccccc2)CC1)c1cc2ccccc2s1`, the IC50 is 175 nM in experiment [1] and greater than 10000 nM in experiment [2].

Regarding `O=C(NNC(=O)[C@H]1CC[C@H](CNS(=O)(=O)c2cccc3cccnc23)CC1)c1cccs1`, the results for the IC50 in experiment [1] and in experiment [2] were 147 nM and greater than 10000 nM, respectively.

As to `O=C(NNC(=O)[C@H]1CC[C@H](CNS(=O)(=O)c2ccc(Cl)cc2)CC1)c1cc2ccccc2s1`, the IC50 in experiment [1] is 279 nM; in experiment [2], greater than 10000 nM.

With `CC(C)c1cc(C(C)C)c(S(=O)(=O)NC[C@H]2CC[C@H](C(=O)NNC(=O)c3cccs3)CC2)c(C(C)C)c1`, the IC50 in experiment [1] is 47.7 nM; in experiment [2], greater than 10000 nM.

In the case of `Cc1ccc(S(=O)(=O)NC[C@H]2CC[C@H](C(=O)NNC(=O)c3cc4ccccc4s3)CC2)cc1`, the IC50 in experiment [1] is 42.9 nM; in experiment [2], greater than 10000 nM.

Broadly, the IC50 is the concentration needed to halve the response being measured. A lower IC50 goes with greater potency.

The values above are taken from ChEMBL document CHEMBL1147417, “Synthesis of new thiophene and benzo[b]thiophene hydrazide derivatives as human NPY Y(5) antagonists” (Bioorg Med Chem Lett, 2004).
